A value given as a limit tells only on which side of the number the result lay.

Tyrosine-protein kinase Lck, sequence (P06239 whole entry): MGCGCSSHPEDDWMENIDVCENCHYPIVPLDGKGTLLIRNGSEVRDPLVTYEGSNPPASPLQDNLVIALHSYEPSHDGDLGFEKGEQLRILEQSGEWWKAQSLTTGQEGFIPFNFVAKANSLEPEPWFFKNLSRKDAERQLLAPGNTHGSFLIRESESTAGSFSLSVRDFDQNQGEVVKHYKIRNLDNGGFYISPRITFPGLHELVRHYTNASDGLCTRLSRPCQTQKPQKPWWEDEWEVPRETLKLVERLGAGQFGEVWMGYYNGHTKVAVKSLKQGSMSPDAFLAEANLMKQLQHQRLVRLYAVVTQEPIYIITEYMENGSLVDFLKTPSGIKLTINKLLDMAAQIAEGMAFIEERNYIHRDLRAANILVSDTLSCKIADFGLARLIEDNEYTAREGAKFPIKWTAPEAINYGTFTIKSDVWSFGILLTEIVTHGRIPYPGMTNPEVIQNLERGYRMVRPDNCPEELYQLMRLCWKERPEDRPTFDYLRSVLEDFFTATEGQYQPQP

This experiment has as its target Tyrosine-protein kinase Lck (Homo sapiens, UniProt P06239). The experiment can be described thus: Inhibition of protein-tyrosine kinase p56lck.
The compound `O=C(O)c1cc(-c2ccc3c(O)ccc(O)c3c2)ccc1O` displayed an IC50 of 65 µM.

Regarding `O=C(O)c1cc(-c2ccc3ccccc3c2)ccc1O`, the half-inhibitory concentration (IC50) is greater than 200 µM.

For `O=C(O)c1cc(-c2ccc3cc(O)c(O)cc3c2)ccc1O`, inhibition was half-maximal at 150 µM (IC50).

On to `O=C(O)c1cc(-c2ccc3c(O)c(O)ccc3c2)ccc1O`, for which the IC50 was 42 µM.
